Experimental findings from patent US10793575B2, “Oxoisoquinoline derivatives” (CARNA BIOSCIENCES, INC., priority 2016, dated 2020) are described below.

The target of assay [1] is dephosphorylated BTK (Homo sapiens (Human), UniProt Q06187). The assay is described as follows: BTK Activity Inhibition Test (mobility shift assay). The format is biochemical. The following applies: 200 μM ATP, read-out: Inhibitory Activity on BTK. A digest of the protocol: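 Biotinylated human BTK was dephosphorylated with λ phosphatase and assayed by mobility shift, with FITC-SRCtide as substrate in 20 mM HEPES pH 7.5, 0.01% Triton X-100 and 2 mM DTT. The substrate mix held 4 μM substrate, 20 mM MgCl2 and 200 μM ATP, and the enzyme solution held 0.46 nM BTK (stock levels, not final). After 2 h at room temperature, % inhibition was derived from P/(P+S) and IC50 by log-concentration regression.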

Assay [2] addresses BTK (Homo sapiens (Human), UniProt Q06187). Kind of assay: Intracellular BTK Auto-Phosphorylation Activity Inhibition Test in Ramos cells. The format is cell-based. The following applies: test compound 0.03 μM, anti-IgM stimulation, pY223, read-out: Inhibitory Activity on BTK-phosphorization. The protocol:
Ramos cells (2G6.4C10, ATCC No. CRL-1923) were cultured in a T75 flask containing RPMI-1640 medium (GIBCO, # A10491-01) supplemented with 10% FBS (AusGene) and 1% penicillin-streptomycin (Nacalai Tesque, Inc.) (hereinafter referred to as growth medium) in a 5% CO2 incubator.
The cultured Ramos cells were diluted to a cell density of 7.5×10^6 cells/mL with a serum-free RPMI-1640 (hereinafter referred to as medium) and kept at 37° C. for 45 minutes. The cell suspension was dispensed in 1 mL aliquots into 2.0 mL tubes. A 0.03 mM solution of the test substance in DMSO was diluted with the medium to make a 0.09 μM test compound solution, 500 μL of which was then added to the tubes and the incubation was conducted at 37° C. for 1 hour in the presence of the test compound at a final concentration of 0.03 μM. Thereafter, the anti-IgM antibody (Invitrogen, H15100) which had been diluted with the medium was added at a final concentration of 10 μg/mL, and the incubation was conducted at 37° C. for 10 minutes.
To the pellets obtained by recovering the cells via centrifugation, 100 μL of a lysis buffer [RIPA Buffer(×1)(Cell Signaling Technology, Inc.) supplemented with 1% Phosphatase inhibitor Cacktail 3 (Sigma Corporation, No. P0044), 1% Phosphatase inhibitor Cacktail (Nacalai Tesque, Inc., No. 07575) and 1 mM phenylmethylsulfonyl fluoride (PMSF)] was added and stirred gently and then allowed to stand for 10 minutes. The supernatant was recovered by centrifugation (15,000 rpm, 15 minutes) and the protein level was quantified. The portion was mixed with the SDS-sample buffer, allowed to react for 5 minutes at 95° C. to denature the protein, thereby obtaining a sample solution. Each 5 μL of the sample solutions was applied to each well containing a 5 to 20% gradient acrylamide gel (Nacalai Tesque, Inc., No. 13064-04) and electrophoresis was conducted. Thereafter, iBlot gel transfer system (Life Technologies Corporation) was used to transfer the proteins in the gel onto a PVDF membrane.
The PVDF membrane after transfer was blocked with 2% ECL prime blocking Reagent (GE Healthcare) and thereafter the reaction was conducted overnight at 4° C. using anti-BTK mouse antibody (BD transduction laboratory, No. 611116) or anti-phosphorylated BTK rabbit antibody (pY223, EPITOMICS, No. 2207-1) as a primary antibody. The unreacted primary antibody was washed with a TBST buffer (10 mM Tris-HCl (pH 7.5), 150 mM NaCl, 0.1% Tween 20) and then the reaction was conducted for 1 hour at room temperature in a TBST buffer supplemented with 2% ECL prime blocking Reagent using HRP-labeled anti-mouse IgG horse antibody (Cell Signaling Technology, No. 7076) or anti-rabbit IgG goat antibody (Cell Signaling Technology, No. 7074) as a secondary antibody. After washing the unreacted secondary antibody with the TBST buffer, Chemi-Lumi One Super (Nacalai Tesque, Inc.) was used to conduct a reaction in accordance with the attached protocol, and then the respective bands as chemiluminescences were detected with a CCD camera (GE Healthcare ImageQuant LAS 500). […] Each phosphorylated BTK band was corrected based on the total BTK.
The intracellular BTK autophosphorylation inhibiting activity was indicated with the mark “***” when 90% or more, with the mark “**” when 70% or more and less than 90%, and with the mark “*” when 50% or more and less than 70%.

Assay [3] concerns OCI-Ly10 cells. The assay is described as follows: Proliferation-Inhibitory Test Against Diffuse Large-Cell B-Cell Lymphoma OCI-Ly10 Strain. The format is cell-based. The following applies: Homo sapiens, 96 hours, alamarBlue. An outline of the steps: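 In IMDM with 20% FBS, OCI-Ly10 cells (20000 cells/well) were exposed to compound at 0.9 nM to 30000 nM (0.3% DMSO final) for 96 hours. Viability was then read with alamarBlue reagent.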
A general note: Alamar Blue is a resazurin reagent that responds to reducing activity.

Assay [4] addresses wild type BTK [BTK(WT)] (Homo sapiens (Human), UniProt Q06187). The assay is described as follows: C481S Mutant BTK Inhibitory Activity Test, wild type BTK (mobility shift assay). The format is biochemical. The following applies: 120 μM ATP. As for the experimental part:
(§1) The kinase activity was measured using QuickScout Screening Assist (trademark) MSA (commercially available kit manufactured by Carna Biosciences, Inc.) by mobility shift assay (MSA) method. The substrate of the kinase reaction was an FITC-labeled SRCtide peptide included in the kit. […] The 10 mM solution of the test compound in DMSO was further diluted with DMSO to 10 levels of the concentration (0.00003 mM, 0.0001 mM, 0.0003 mM, 0.001 mM, 0.003 mM, 0.01 mM, 0.03 mM, 0.1 mM, 0.3 mM, 1 mM), each of which was subjected to a 25-fold dilution with the assay buffer to obtain the drug solutions (4% DMSO solutions).
(§2) 5 μL of the drug solution or a control solution (4% DMSO-assay buffer), 5 μL of the substrate mixture solution, and 10 μL of the enzyme solution were mixed in the wells of a polypropylene 384-well plate and allowed to react at room temperature for 1 hour, and then quenched by adding 60 μL of the termination buffer included in the kit. Subsequently, the quantities of the substrates (S) and the phosphorylated substrate (P) in the reaction solution were measured using LabChip EZ Reader II system (manufactured by Caliper Life Sciences) according to the protocol of the assay kit.
(§3) The heights of the peaks of the isolated substrate and the phosphorylated substrate were represented as S and P, respectively, and a blank which contained the assay buffer instead of the enzyme solution was also measured.
(§4) The inhibition rate (%) of the test compound was calculated according to the following equation; Inhibition rate (%)=(1−(C−A)/(B−A))×100 • wherein, A, B and C represent P/(P+S) of the blank well, P/(P+S) of the control well and P/(P+S) of the compound-containing well, respectively.
(§5) The IC50 value was calculated via a regression analysis of the inhibition rate (%) and the test compound concentration (logarithmic value).

Assay [5] concerns the target C481S mutant BTK [BTK(C481S)] (Homo sapiens (Human), UniProt Q06187, C481S). The assay is described as follows: C481S Mutant BTK Inhibitory Activity Test (mobility shift assay). The format is biochemical. The following applies: for IC50: C481S mutant BTK, 100 μM ATP; for C481S mutation-resistance: IC50[BTK(C481S)]/IC50[BTK(WT)]. The protocol:
as §1, §2, §3, §4, §5

Chain of wild type BTK [BTK(WT)] (Q06187 whole entry): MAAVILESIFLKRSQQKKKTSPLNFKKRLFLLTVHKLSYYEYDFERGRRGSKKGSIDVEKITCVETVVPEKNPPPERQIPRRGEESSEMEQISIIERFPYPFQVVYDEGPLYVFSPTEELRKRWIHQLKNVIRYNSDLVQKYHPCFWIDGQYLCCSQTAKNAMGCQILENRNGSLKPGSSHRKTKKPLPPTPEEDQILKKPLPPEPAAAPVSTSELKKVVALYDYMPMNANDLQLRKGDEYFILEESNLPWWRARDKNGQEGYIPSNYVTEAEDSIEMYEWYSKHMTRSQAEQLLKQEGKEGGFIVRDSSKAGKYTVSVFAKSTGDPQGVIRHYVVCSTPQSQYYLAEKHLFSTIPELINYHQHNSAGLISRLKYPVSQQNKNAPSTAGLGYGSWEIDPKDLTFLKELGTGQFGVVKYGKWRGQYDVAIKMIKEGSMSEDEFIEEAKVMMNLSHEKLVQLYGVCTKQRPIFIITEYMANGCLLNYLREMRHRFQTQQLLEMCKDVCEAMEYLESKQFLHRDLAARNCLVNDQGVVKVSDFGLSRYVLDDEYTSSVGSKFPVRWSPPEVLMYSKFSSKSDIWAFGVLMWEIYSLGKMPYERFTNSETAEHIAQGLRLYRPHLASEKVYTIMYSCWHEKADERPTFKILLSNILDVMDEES
Chain of BTK (Q06187 whole entry): as above
Chain of dephosphorylated BTK (Q06187 whole entry): as above
Chain of C481S mutant BTK [BTK(C481S)] (Q06187 whole entry C481S): as the sequence (Q06187 whole entry) above, with C481S counted along it

On to `N#Cc1ccc(-c2cc3c(-c4cccc(-n5ccc6cc(C7CC7)cc(F)c6c5=O)c4CO)nc(N)nc3[nH]2)cc1` [Example 27, 4-{2-amino-4-[3-(6-cyclopropyl-8-fluoro-1-oxoisoquinolin-2(1H)-yl)-2-(hydroxymethyl)phenyl]-7H-pyrrolo[2,3-d]pyrimidin-6-yl}benzonitrile], for which the values for the IC50 in assay [1] and in assay [3] were below 10 nM and 182 nM, respectively. In addition, in assay [2], the inhibition at 0.03 µM is at least 90%.

Regarding `Nc1nc(-c2cccc(-n3ccc4cc(C5CC5)cc(F)c4c3=O)c2CO)c2cc(-c3ccc(CN4CCOCC4)cc3)[nH]c2n1` [Example 26, 2-(3-{2-amino-6-[4-(morpholinomethyl)phenyl]-7H-pyrrolo[2,3-d]pyrimidin-4-yl}-2-(hydroxymethyl)phenyl)-6-cyclopropyl-8-fluoroisoquinolin-1(2H)-one], the figures for the IC50 in assay [1] and in assay [3] were below 10 nM and 75 nM, respectively. Moreover, the inhibition at 0.03 µM in assay [2] was at least 90%.

For the compound `Nc1nc(-c2cccc(-n3ccc4cc(C5CC5)cc(F)c4c3=O)c2CO)c2nc(-c3ccccc3)[nH]c2n1` [Example 2, 2-[3-(2-amino-8-phenyl-9H-purin-6-yl)-2-(hydroxymethyl)phenyl]-6-cyclopropyl-8-fluoroisoquinolin-1(2H)-one], the IC50 was below 10 nM in assay [1], 0.97 nM in assay [4], 0.99 nM in assay [5] and 68 nM in assay [3]. Moreover, the inhibition at 0.03 µM in assay [2] was at least 90%. The C481S mutation-resistance in assay [5] was 1.0.

With `Nc1nc(-c2cccc(-n3ccc4cc(C5CC5)cc(F)c4c3=O)c2CO)c2nc(-c3cccnc3)[nH]c2n1` [Example 25, 2-{3-[2-amino-8-(pyridin-3-yl)-9H-purin-6-yl]-2-(hydroxymethyl)phenyl]-6-cyclopropyl-8-fluoroisoquinolin-1(2H)-one], the IC50 in assay [1] was below 10 nM. Moreover, in assay [2], the inhibition at 0.03 µM was at least 90%.

Consider `COc1cccc(-c2cc3c(-c4cccc(-n5ccc6cc(C7CC7)cc(F)c6c5=O)c4CO)nc(N)nc3[nH]2)c1` [Example 15, 2-{3-[2-amino-6-(3-methoxyphenyl)-7H-pyrrolo[2,3-d]pyrimidin-4-yl]-2-(hydroxymethyl)phenyl}-6-cyclopropyl-8-fluoroisoquinolin-1(2H)-one], for which the IC50 in assay [1] is below 10 nM. The inhibition at 0.03 µM in assay [2] was at least 90%.

Turning to `CN1CCN(Cc2ccc(-c3cc4c(-c5cccc(-n6ccc7cc(C8CC8)cc(F)c7c6=O)c5CO)nc(N)nc4[nH]3)cc2)CC1` [Example 8, 2-[3-(2-amino-6-{4-[(4-methylpiperazin-1-yl)methyl]phenyl}-7H-pyrrolo[2,3-d]pyrimidin-4-yl)-2-(hydroxymethyl)phenyl]-6-cyclopropyl-8-fluoroisoquinolin-1(2H)-one], the IC50 in assay [1] was below 10 nM; in assay [4], 0.33 nM; in assay [5], 0.43 nM; in assay [3], 4 nM. In assay [2], the inhibition at 0.03 µM is at least 90%. In addition, in assay [5], the C481S mutation-resistance is recorded as 1.3.

For `Nc1nc(-c2cccc(-n3ccc4cc(C5CC5)cc(F)c4c3=O)c2CO)c2cc(C3=CCN(C4COC4)CC3)[nH]c2n1` [Example 23, 2-(3-{2-amino-6-[1-(oxetan-3-yl)-1,2,3,6-tetrahydropyridin-4-yl]-7H-pyrrolo[2,3-d]pyrimidin-4-yl}-2-(hydroxymethyl)phenyl)-6-cyclopropyl-8-fluoroisoquinolin-1(2H)-one], the IC50 in assay [1] is below 10 nM; in assay [4], 0.46 nM; in assay [5], 0.99 nM; in assay [3] it was 20 nM. Besides, in assay [2], the inhibition at 0.03 µM is at least 90%. The C481S mutation-resistance in assay [5] was 2.2.

As for `Cn1cc(-c2cc3c(-c4cccc(-n5ccc6cc(C7CC7)cc(F)c6c5=O)c4CO)nc(N)nc3[nH]2)cn1` [Example 13, 2-{3-[2-amino-6-(1-methyl-1H-pyrazol-4-yl)-7H-pyrrolo[2,3-d]pyrimidin-4-yl]-2-(hydroxymethyl)phenyl}-6-cyclopropyl-8-fluoroisoquinolin-1(2H)-one], the IC50 is below 10 nM in assay [1], 0.49 nM in assay [4], 0.6 nM in assay [5] and 27 nM in assay [3]. Besides, in assay [2], the inhibition at 0.03 µM is at least 90%. The C481S mutation-resistance in assay [5] is reported as 1.2.

For `Nc1nc(-c2cccc(-n3ccc4cc(C5CC5)cc(F)c4c3=O)c2CO)c2c(-c3ccccc3)n[nH]c2n1` [Example 3, 2-[3-(6-amino-3-phenyl-1H-pyrazolo[3,4-d]pyrimidin-4-yl)-2-(hydroxymethyl)phenyl]-6-cyclopropyl-8-fluoroisoquinolin-1(2H)-one], the IC50 in assay [1] is below 10 nM. Moreover, the inhibition at 0.03 µM in assay [2] is at least 90%.

Regarding `Nc1nc(-c2cccc(-n3ccc4cc(C5CC5)cc(F)c4c3=O)c2CO)c2cn[nH]c2n1` [Example 5, 2-[3-(6-amino-1H-pyrazolo[3,4-d]pyrimidin-4-yl)-2-(hydroxymethyl)phenyl]-6-cyclopropyl-8-fluoroisoquinolin-1(2H)-one], the IC50 in assay [1] was below 10 nM. For the same compound, the inhibition at 0.03 µM in assay [2] is at least 90%.

As for `Nc1nc(-c2cccc(-n3ccc4cc(C5CC5)cc(F)c4c3=O)c2CO)c2cc(-c3ccsc3)[nH]c2n1` [Example 32, 2-{3-[2-amino-6-(thiophen-3-yl)-7H-pyrrolo[2,3-d]pyrimidin-4-yl]-2-(hydroxymethyl)phenyl}-6-cyclopropyl-8-fluoroisoquinolin-1(2H)-one], the values for the IC50 in assay [1] and in assay [3] were below 10 nM and 79 nM, respectively. Also, the inhibition at 0.03 µM in assay [2] is at least 90%.
